According to ChEMBL document CHEMBL1212896, “Discovery of novel cyanodihydropyridines as potent mineralocorticoid receptor antagonists” (J Med Chem, 2010):
Values after ≈ are worked out from the molar mass of the structure shown.

Experiments:
[1] = molecular target: T1, Mineralocorticoid receptor (Homo sapiens, UniProt P08235)
T1 sequence (P08235 whole entry): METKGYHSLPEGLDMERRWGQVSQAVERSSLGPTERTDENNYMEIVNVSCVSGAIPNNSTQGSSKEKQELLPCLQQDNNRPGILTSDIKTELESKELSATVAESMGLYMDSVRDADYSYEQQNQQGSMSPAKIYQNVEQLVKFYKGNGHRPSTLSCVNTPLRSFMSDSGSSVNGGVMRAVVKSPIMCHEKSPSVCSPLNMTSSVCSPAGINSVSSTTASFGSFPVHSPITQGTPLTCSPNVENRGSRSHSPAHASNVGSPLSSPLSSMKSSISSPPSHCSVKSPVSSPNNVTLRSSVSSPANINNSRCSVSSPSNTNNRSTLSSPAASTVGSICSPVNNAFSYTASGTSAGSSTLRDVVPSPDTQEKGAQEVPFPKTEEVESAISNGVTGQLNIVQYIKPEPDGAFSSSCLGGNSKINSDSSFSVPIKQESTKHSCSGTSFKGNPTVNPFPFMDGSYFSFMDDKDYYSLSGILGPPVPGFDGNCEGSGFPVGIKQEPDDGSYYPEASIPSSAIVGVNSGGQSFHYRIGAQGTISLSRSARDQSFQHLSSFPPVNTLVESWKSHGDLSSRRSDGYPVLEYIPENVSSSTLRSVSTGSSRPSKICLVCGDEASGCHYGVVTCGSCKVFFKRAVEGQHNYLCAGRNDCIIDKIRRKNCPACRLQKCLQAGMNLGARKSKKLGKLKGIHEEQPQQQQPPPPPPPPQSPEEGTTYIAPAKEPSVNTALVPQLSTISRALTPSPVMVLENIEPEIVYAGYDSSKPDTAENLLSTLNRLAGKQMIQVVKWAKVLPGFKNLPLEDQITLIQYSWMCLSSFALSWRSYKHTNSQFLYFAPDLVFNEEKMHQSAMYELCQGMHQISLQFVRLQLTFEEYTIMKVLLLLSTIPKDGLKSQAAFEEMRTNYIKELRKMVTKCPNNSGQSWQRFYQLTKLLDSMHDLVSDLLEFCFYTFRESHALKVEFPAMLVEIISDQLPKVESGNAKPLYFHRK
Description: Antagonist activity at mineralocorticoid receptor LBD expressed in human HUH7 cells coexpressing GAL4 by luciferase reporter gene assay

Cytochrome P450 2D6 = Cytochrome P450 2D6 (Homo sapiens, UniProt P10635); test: Inhibition of CYP2D6; type: ADME
Cytochrome P450 3A4 = Cytochrome P450 3A4 (Homo sapiens, UniProt P08684); test: Inhibition of CYP3A4; type: ADME
Androgen receptor = molecular target: T2, Androgen receptor (Homo sapiens, UniProt P10275); test: Antagonist activity at androgen receptor LBD expressed in human HUH7 cells coexpressing GAL4 by luciferase reporter gene assay; type: functional, cell-based, Huh-7
T2 sequence (P10275 whole entry): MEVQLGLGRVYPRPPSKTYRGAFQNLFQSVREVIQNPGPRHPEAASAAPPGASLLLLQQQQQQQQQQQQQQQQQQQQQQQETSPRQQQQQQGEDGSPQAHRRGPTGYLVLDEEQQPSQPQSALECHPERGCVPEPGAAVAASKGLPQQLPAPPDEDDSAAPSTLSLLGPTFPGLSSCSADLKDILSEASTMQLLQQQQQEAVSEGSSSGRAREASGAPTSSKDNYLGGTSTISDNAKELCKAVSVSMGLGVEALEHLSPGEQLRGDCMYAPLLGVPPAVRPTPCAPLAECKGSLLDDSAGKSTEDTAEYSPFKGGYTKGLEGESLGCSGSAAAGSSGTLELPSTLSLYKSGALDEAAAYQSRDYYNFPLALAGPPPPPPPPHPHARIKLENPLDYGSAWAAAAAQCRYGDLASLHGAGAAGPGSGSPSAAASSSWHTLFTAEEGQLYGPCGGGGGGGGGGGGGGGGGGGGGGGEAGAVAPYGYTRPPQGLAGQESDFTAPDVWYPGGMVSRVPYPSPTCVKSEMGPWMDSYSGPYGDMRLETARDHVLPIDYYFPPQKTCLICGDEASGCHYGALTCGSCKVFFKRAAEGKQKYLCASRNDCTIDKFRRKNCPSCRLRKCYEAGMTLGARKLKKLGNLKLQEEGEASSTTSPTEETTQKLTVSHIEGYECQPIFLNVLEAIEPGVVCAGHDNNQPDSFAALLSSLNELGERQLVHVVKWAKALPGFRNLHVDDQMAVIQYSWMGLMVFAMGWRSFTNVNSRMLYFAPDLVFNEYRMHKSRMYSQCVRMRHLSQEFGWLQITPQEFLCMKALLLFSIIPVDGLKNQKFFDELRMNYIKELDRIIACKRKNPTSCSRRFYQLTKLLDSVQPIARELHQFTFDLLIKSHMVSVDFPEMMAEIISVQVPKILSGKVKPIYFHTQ

Progesterone receptor = molecular target: T3, Progesterone receptor (Homo sapiens, UniProt P06401); test: Antagonist activity at progesterone receptor LBD expressed in human HUH7 cells coexpressing GAL4 by luciferase reporter gene assay; type: functional, cell-based, Huh-7
T3 sequence (P06401 whole entry): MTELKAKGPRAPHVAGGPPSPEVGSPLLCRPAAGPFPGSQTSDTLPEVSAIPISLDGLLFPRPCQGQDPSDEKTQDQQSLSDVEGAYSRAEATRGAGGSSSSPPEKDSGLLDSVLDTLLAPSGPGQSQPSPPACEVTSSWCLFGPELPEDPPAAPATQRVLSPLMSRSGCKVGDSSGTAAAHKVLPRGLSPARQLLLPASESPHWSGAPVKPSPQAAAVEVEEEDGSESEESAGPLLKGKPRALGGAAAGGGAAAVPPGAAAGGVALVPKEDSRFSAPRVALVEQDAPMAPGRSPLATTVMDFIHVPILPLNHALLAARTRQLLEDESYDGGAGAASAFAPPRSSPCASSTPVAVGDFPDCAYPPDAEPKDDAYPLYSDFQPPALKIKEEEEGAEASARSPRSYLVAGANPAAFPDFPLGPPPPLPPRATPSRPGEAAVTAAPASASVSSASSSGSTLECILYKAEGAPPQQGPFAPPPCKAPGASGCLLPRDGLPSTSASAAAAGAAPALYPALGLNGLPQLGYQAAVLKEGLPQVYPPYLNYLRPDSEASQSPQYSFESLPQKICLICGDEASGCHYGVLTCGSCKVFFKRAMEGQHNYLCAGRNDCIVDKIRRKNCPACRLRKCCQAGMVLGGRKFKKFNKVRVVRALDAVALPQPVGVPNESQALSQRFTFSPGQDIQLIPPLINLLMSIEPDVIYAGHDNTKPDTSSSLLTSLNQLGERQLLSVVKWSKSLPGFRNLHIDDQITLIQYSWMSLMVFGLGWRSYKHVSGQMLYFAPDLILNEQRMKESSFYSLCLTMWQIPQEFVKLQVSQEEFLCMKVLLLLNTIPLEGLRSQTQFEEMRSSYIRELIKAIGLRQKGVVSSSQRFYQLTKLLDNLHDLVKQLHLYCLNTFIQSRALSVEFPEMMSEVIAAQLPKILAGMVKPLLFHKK

Liver microsomes [2] = test: Metabolic stability in rat liver microsomes assessed as compound remaining; type: ADME, Microsome; also: time not given here
Glucocorticoid receptor = molecular target: T4, Glucocorticoid receptor (Homo sapiens, UniProt P04150); test: Antagonist activity at glucocorticoid receptor LBD expressed in human HUH7 cells coexpressing GAL4 by luciferase reporter gene assay; type: functional, cell-based, Huh-7
T4 sequence (P04150 whole entry): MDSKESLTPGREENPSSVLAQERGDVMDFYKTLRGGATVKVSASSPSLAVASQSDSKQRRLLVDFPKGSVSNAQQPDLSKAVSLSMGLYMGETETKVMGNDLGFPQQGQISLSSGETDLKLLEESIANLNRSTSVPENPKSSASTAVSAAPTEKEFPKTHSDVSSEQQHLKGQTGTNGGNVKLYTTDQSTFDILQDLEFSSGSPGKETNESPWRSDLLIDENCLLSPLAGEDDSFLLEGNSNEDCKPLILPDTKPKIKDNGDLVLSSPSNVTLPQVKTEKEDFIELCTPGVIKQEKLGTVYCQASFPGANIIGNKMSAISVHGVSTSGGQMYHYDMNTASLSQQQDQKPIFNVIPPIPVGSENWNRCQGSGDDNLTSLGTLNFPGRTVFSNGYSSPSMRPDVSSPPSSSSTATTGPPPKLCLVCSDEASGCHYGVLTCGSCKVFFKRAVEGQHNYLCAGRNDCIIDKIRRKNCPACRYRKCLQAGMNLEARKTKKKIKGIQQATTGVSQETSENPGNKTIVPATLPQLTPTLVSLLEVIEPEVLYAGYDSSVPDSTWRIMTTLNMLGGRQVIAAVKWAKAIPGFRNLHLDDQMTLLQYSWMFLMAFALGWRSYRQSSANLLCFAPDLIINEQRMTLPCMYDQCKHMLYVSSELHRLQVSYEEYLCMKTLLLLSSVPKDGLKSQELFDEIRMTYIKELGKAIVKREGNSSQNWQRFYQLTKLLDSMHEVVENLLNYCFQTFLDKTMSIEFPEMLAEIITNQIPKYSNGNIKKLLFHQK

Liver microsomes [3] = test: Metabolic stability in human liver microsomes assessed as compound remaining; type: ADME, Microsome; also: time not given here
Cytochrome P450 2C9 = Cytochrome P450 2C9 (Homo sapiens, UniProt P11712); test: Inhibition of CYP2C9; type: ADME
[4] = Solubility of the compound; type: physicochemical

Cytochrome P450 2C9, sequence (P11712 whole entry): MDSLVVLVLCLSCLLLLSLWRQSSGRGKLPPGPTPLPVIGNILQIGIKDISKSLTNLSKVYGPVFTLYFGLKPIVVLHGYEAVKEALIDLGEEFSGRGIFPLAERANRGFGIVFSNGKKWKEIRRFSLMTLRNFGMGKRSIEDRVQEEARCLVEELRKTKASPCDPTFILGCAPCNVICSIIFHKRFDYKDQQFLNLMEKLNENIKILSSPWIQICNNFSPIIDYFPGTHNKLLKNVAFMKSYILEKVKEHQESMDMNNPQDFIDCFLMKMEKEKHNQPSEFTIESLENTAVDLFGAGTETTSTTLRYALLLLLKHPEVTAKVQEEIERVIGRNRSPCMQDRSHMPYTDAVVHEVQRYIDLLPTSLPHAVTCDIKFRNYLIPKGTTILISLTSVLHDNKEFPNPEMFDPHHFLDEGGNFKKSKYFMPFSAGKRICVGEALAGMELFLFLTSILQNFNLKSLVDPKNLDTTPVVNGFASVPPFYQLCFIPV
Cytochrome P450 2D6, sequence (P10635 whole entry): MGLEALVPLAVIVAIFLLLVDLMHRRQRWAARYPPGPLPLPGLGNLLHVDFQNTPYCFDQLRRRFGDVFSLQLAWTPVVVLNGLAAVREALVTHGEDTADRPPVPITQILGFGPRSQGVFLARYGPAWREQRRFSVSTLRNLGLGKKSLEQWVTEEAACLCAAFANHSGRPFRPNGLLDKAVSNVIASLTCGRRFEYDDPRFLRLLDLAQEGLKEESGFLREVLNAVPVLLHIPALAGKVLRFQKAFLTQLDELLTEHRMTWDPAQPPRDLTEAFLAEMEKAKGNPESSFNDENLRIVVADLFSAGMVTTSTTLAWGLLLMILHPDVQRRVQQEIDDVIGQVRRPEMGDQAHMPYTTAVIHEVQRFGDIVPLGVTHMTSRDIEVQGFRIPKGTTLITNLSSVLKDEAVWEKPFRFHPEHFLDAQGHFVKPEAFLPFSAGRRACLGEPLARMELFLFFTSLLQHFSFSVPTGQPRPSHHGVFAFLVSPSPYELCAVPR
Cytochrome P450 3A4, sequence (P08684 whole entry, the tested form may be a part): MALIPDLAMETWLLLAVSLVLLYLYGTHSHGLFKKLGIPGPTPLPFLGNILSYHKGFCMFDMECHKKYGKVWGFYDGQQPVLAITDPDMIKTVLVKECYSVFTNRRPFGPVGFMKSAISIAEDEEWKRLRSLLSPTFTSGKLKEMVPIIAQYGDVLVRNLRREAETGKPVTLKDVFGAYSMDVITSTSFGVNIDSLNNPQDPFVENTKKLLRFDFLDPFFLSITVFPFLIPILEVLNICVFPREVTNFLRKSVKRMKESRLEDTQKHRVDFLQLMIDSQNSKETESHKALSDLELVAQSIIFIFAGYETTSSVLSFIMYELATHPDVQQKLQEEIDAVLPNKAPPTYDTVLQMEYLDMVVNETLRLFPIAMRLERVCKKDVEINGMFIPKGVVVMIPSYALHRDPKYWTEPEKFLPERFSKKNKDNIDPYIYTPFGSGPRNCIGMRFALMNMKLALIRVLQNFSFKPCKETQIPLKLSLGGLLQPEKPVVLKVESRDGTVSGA

Row | SMILES | IC50 [1] | also measured
1 | COC(=O)C1=C(C)NC(C)=C(C(=O)OC(C)(C)C)C1c1ccccc1Cl (stereo not drawn) | 621 nM | –
2 | COC(=O)C1=C(C(F)(F)F)NC(C)=C(C#N)C1c1ccc(F)cc1Cl (stereo not drawn) | 52 nM | inhibition (INH) (Cytochrome P450 2D6): 6.8%; inhibition (INH) (Cytochrome P450 3A4): 30%; IC50 (Androgen receptor): 800 nM; IC50 (Progesterone receptor): 7800 nM; Stability (Liver microsomes [2]): 6%; IC50 (Glucocorticoid receptor): 3700 nM; Stability (Liver microsomes [3]): 0%; inhibition (INH) (Cytochrome P450 2C9): 72%
3 | CCC1=C(C(=O)OC)C(c2ccccc2Cl)C(C#N)=C(C)N1 (stereo not drawn) | 232 nM | –
4 | CC1=C(C#N)C(c2ccc(F)cc2F)C(C(=O)OC(C)(C)C)=C(C)N1 (stereo not drawn) | 201 nM | –
5 | CC1=C(C#N)C(c2ccc(F)cc2)C(C(=O)OC(C)(C)C)=C(C)N1 (stereo not drawn) | 329 nM | –
6 | COC(=O)C1=C(C)NC(C)=C(C(=O)OC(C)(C)C)C1c1cccc(OC)c1 (stereo not drawn) | 888 nM | –
7 | COC(=O)C1=C(C)NC(C)=C(C(=O)OC(C)(C)C)C1c1ccccc1F (stereo not drawn) | 2020 nM | –
8 | COC(=O)C1=C(C)NC(C)=C(C(=O)OC(C)(C)C)C1c1cccc(F)c1 (stereo not drawn) | 1390 nM | –
9 | COC(=O)C1=C(C)NC(C)=C(C(=O)OC(C)(C)C)C1c1ccccc1C (stereo not drawn) | 208 nM | –
10 | CCN1C(C)=C(C#N)C(c2ccc(F)cc2F)C(C(=O)OC(C)(C)C)=C1C (stereo not drawn) | 1620 nM | –
11 | COCC1=C(C(=O)OC)C(c2ccccc2Cl)C(C#N)=C(C)N1 (stereo not drawn) | 655 nM | –
12 | COC(=O)C1=C(C)NC(C)=C(C(=O)OC(C)(C)C)C1c1cccc(C(F)(F)F)c1 (stereo not drawn) | 702 nM | –
13 | CC1=C(C#N)C(C)(c2ccc(F)cc2)C(C(=O)OC(C)(C)C)=C(C)N1 (stereo not drawn) | 661 nM | –
14 | COC(=O)C1=C(C)NC(C)=C(C(=O)OC(C)(C)C)C1c1cccc(C#N)c1 (stereo not drawn) | 3200 nM | –
15 | CCOC(=O)C1=C(c2ccc(Cl)cc2)NC(C)=C(C#N)C1c1ccccc1Cl (stereo not drawn) | 1090 nM | –
16 | CCCC1=C(C(=O)OC)C(c2ccc(F)cc2Cl)C(C#N)=C(C)N1 (stereo not drawn) | 16 nM | IC50 (Androgen receptor): 100 nM; IC50 (Progesterone receptor): > 10000 nM; Stability (Liver microsomes [2]): 4%; IC50 (Glucocorticoid receptor): 700 nM; solubility [4]: 5 µM (≈ 1.74 µg/mL); Stability (Liver microsomes [3]): 4%
17 | COC(=O)C1=C(C)NC(C)=C(C(=O)OC(C)(C)C)C1c1ccc(Cl)cc1 (stereo not drawn) | 319 nM | –
18 | COC(=O)C1=C(C(C)C)NC(C)=C(C#N)C1c1ccccc1Cl (stereo not drawn) | 208 nM | –
19 | COC(=O)C1=C(C)NC(C)=C(C(=O)OC(C)(C)C)C1c1cccc(Cl)c1 (stereo not drawn) | 518 nM | –
